Test results published in patent US10323000B2, “Indole derivatives and their use in neurodegenerative diseases” (priority 2014, dated 2019).
pIC50: −log10 of the molar value. Where two headings read alike, the source gives them in different places.

Tests used:
human P2X7 receptor = human P2X7 receptor (Homo sapiens (Human), UniProt Q99572); assay: Pore permeation assay (YO PRO dye uptake); type: cell-based
Procedure: Agonist-induced pore formation was determined by measuring cellular uptake of YO PRO fluorescence dye in HEK293 transfected with human P2X7 receptor. A HEK293 cell over expressing human P2X7 was harvested using HQTase reagent to detach the cells from T75 cm flask. The harvested cells are centrifuged @1200 rpm for 5 min at room temperature. The viability of cells was determined by Trypan blue dye and the cells are plated @10,000 cell/well in 50 ul volume in a 384W BD Poly lysine coated plate and incubated overnight at 37 C. […] The plate was centrifuged at 1000 rpm for 5 seconds and incubated at room temperature for 30 minutes. The uptake of YO PRO dye into the cells was measured using Envision Fluorescence plate reader instrument (Perkin Elmer).

[1] = biological target: P2X7 (IL-1β release from THP-1 cells) (Homo sapiens (Human), UniProt Q99572); assay: IL-1β release assay; type: cell-based
Procedure: IL-1β release assay: The activation of P2X7 by ATP leads to a fast transient activation of cells resulting in influx of Ca^2+ followed by conversion of pro-IL-1β to active IL-1β. The functional activity of P2X7 compounds was measured by the release of mature […] in the culture medium of THP-1 cells, detected by sandwich ELISA. […] THP-1 cells were harvested from the flask in 50 ml by centrifugation for 3 min at 100 g. The cells were resuspended to 2×10^5 cells/ml in medium supplemented with 0.5 μM PMA and incubated. The cells were washed and resuspended to 1.5×10^5 cells/ml in medium complemented with 10 ng/ml LPS, and the cells were primed for 4 h at 37° C., 5% CO2. After addition of 20 μL of prediluted test compounds, blank, standard and control reagents, cells were incubated for a further 20 min at 37° C. and stimulated with 0.8 mM BzATP for 30 minutes. The cells were centrifuged, supernatant was collected and the presence of mature IL-1β was detected using Dual human IL-1b kit following manufacturer's instruction. The tetrahydrobenzodiazepine analogs effectively modulated the activity of P2X7 in the cells as measured by the levels of pro-inflammatory cytokine IL-1β, which is released by the activation of P2X7 receptor.

[2] = HEK293 transfected with human P2X7, BzATP 10 uM, YO PRO dye uptake, read-out: hP2X7 IC50
[3] = THP-1 cells, LPS primed, 0.8 mM BzATP, mature IL-1β by sandwich ELISA, read-out: hTHP-1/IL-ib IC50

Chain of human P2X7 receptor (Q99572 whole entry): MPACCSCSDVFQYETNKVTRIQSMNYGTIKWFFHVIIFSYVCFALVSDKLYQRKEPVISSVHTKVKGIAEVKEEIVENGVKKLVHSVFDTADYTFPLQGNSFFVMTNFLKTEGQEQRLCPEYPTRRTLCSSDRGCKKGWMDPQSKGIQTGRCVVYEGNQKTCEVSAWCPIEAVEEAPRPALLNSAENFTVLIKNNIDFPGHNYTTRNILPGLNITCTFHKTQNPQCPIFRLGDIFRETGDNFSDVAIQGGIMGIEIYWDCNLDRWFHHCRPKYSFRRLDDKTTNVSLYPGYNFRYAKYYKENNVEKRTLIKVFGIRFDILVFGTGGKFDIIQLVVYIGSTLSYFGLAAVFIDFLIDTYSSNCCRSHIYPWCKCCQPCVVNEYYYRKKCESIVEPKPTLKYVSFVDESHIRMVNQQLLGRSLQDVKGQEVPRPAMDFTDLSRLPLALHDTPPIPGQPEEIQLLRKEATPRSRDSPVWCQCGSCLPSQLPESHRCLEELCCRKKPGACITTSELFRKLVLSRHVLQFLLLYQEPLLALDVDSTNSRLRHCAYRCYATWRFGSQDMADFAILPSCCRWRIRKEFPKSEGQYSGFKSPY
Chain of P2X7 (IL-1β release from THP-1 cells) (Q99572 whole entry): as above

| SMILES | pIC50 (human P2X7 receptor) | pIC50 [1] | pIC50 (human P2X7 receptor; [2]) | pIC50 [1, 3] |
| --- | --- | --- | --- | --- |
| COCCn1cc(C(=O)NCCc2cccs2)c2c(Cl)cccc21 [Compound 30, 4-Chloro-1-(2-methoxy-ethyl)-1H-indole-3-carboxylic acid (2-thiophen-2-yl-ethyl)-amide] | 7.00 to 8.00 | 6.30 to 7.00 | – | – |
| COCCn1cc(C(=O)NC(CO)c2cccc(C(F)(F)F)c2Cl)c2c(Cl)cccc21 (centres unmarked) [Compound 32, 4-chloro-N-(1-(2-chloro-3-(trifluoromethyl)phenyl)-2-hydroxyethyl)-1-(2-methoxyethyl)-1H-indole-3-carboxamide] | – | – | 6.30 to 7.00 | 6.00 to 6.30 |
| COCCn1cc(C(=O)NCC(C)c2ccccc2Cl)c2c(Cl)cccc21 (centres unmarked) [Compound 33, 4-chloro-N-(2-(2-chlorophenyl)propyl)-1-(2-methoxyethyl)-1H-indole-3-carboxamide] | 6.30 to 7.00 | – | – | < 6.00 |
| COCCn1cc(C(=O)NCCc2ccc(F)cc2Cl)c2c(Cl)cccc21 [Compound 34, 4-Chloro-1-(2-methoxy-ethyl)-1H-indole-3-carboxylic acid [2-(4-fluoro-2-chloro-phenyl)-ethyl]-amide] | 6.30 to 7.00 | 6.30 to 7.00 | – | – |
| COCCn1cc(C(=O)NCCc2ccccc2Cl)c2c(Cl)cccc21 [Compound 35, 4-Chloro-1-(2-methoxy-ethyl)-1H-indole-3-carboxylic acid [2-(2-chloro-phenyl)-ethyl]-amide] | 6.30 to 7.00 | 6.30 to 7.00 | – | – |
| COCCn1cc(C(=O)NCCc2ccc(Cl)cc2Cl)c2c(Cl)cccc21 [Compound 36] | 6.30 to 7.00 | – | – | < 6.00 |
| COCCn1cc(C(=O)NCC2(O)CCCC(F)(F)C2)c2c(Cl)cccc21 (centres unmarked) [Compound 37, 4-chloro-N-((3,3-difluoro-1-hydroxycyclohexyl)methyl)-1-(2-methoxyethyl)-1H-indole-3-carboxamide] | 7.00 to 8.00 | 7.00 to 8.00 | – | – |
| COCCn1cc(C(=O)NCC2(c3ccc(C(F)(F)F)cc3)CCOCC2)c2c(Cl)cccc21 [Compound 38] | 7.00 to 8.00 | 6.30 to 7.00 | – | – |
| COCCn1cc(C(=O)NCC2(c3ccccc3)CCCCC2)c2c(Cl)cccc21 [Compound 39, 4-chloro-1-(2-methoxyethyl)-N-((1-phenylcyclohexyl)methyl)-1H-indole-3-carboxamide] | 7.00 to 8.00 | 6.30 to 7.00 | – | – |
| COCCn1cc(C(=O)NCC2(O)CCC(F)(F)CC2)c2c(Cl)cccc21 [Compound 40, 4-chloro-N-((4,4-difluoro-1-hydroxycyclohexyl)methyl)-1-(2-methoxyethyl)-1H-indole-3-carboxamide] | 7.00 to 8.00 | 7.00 to 8.00 | – | – |
| COCCn1cc(C(=O)NCC2CCC(F)(F)CC2)c2c(Cl)cccc21 [Compound 41, 4-chloro-N-((4,4-difluorocyclohexyl)methyl)-1-(2-methoxyethyl)-1H-indole-3-carboxamide] | 7.00 to 8.00 | – | – | > 8.00 |
| O=C(NCC1(N2CCN(c3ccccc3)CC2)CCOCC1)c1cn(C2COC2)c2cccc(Cl)c12 [Compound 44, 4-chloro-1-(oxetan-3-yl)-N-((4-(4-phenylpiperazin-1-yl)tetrahydro-2H-pyran-4-yl)methyl)-1H-indole-3-carboxamide] | 7.00 to 8.00 | 6.30 to 7.00 | – | – |
| O=C(NCCC1(O)CCCC1)c1cn(C2COC2)c2cccc(Cl)c12 [Compound 45, 4-chloro-N-(2-(1-hydroxycyclopentyl)ethyl)-1-(oxetan-3-yl)-1H-indole-3-carboxamide] | – | – | < 6.00 | < 6.00 |
| O=C(NCC1CCCCC1)c1cn(C2COC2)c2cccc(Cl)c12 [Compound 48, 4-chloro-N-(cyclohexylmethyl)-1-(oxetan-3-yl)-1H-indole-3-carboxamide] | 6.30 to 7.00 | 6.30 to 7.00 | – | – |
| O=C(NCC1(N2CCN(c3ccccc3)CC2)CCCCC1)c1cn(C2COC2)c2cccc(Cl)c12 [Compound 51, 4-chloro-1-(oxetan-3-yl)-N-((1-(4-phenylpiperazin-1-yl)cyclohexyl)methyl)-1H-indole-3-carboxamide] | 7.00 to 8.00 | – | – | > 8.00 |
| O=C(NCC1CCC(C(F)(F)F)CC1)c1cn(C2COC2)c2cccc(Cl)c12 (centres unmarked) [Compound 53, 4-Chloro-1-oxetan-3-yl-1H-indole-3-carboxylic acid (4-trifluoromethyl-cyclohexylmethyl)-amide] | 7.00 to 8.00 | 6.30 to 7.00 | – | – |

| SMILES | pIC50 (human P2X7 receptor) | pIC50 [1] | pIC50 (human P2X7 receptor; [2]) | pIC50 [1, 3] |
| --- | --- | --- | --- | --- |
| O=C(NCC1CCCC(C(F)(F)F)C1)c1cn(C2COC2)c2cccc(Cl)c12 (centres unmarked) [Compound 56, 4-Chloro-1-oxetan-3-yl-1H-indole-3-carboxylic acid (3-trifluoromethyl-cyclohexylmethyl)-amide] | 7.00 to 8.00 | 6.30 to 7.00 | – | – |
| O=C(NCC1(O)CCCCC1)c1cn(C2COC2)c2cccc(Cl)c12 [Compound 58, 4-Chloro-1-oxetan-3-yl-1H-indole-3-carboxylic acid (1-hydroxy-cyclohexylmethyl)-amide] | 7.00 to 8.00 | 6.30 to 7.00 | – | – |
| O=C(NCC1C[C@@H]2CC[C@H]1C2)c1cn(C2COC2)c2cccc(Cl)c12 (stereo partly drawn) [Compound 59, 4-Chloro-1-oxetan-3-yl-1H-indole-3-carboxylic acid ((1S,4R)-1-bicyclo[2.2.1]hept-2-ylmethyl)-amide] | 7.00 to 8.00 | 7.00 to 8.00 | – | – |
| CC(NC(=O)c1cn(C2COC2)c2cccc(Cl)c12)[C@]12C[C@H]3C[C@H](C[C@H](C3)C1)C2 (some centres unmarked) [Compound 62, 4-Chloro-1-oxetan-3-yl-1H-indole-3-carboxylic acid (1-adamantan-1-yl-ethyl)-amide] | 7.00 to 8.00 | 7.00 to 8.00 | – | – |
| CC1(C)CCCC(O)(CNC(=O)c2cn(C3COC3)c3cccc(Cl)c23)C1 (centres unmarked) [Compound 64, 4-Chloro-1-oxetan-3-yl-1H-indole-3-carboxylic acid (1-hydroxy-3,3-dimethyl-cyclohexylmethyl)-amide] | 7.00 to 8.00 | 7.00 to 8.00 | – | – |
| O=C(NCC1(O)CCCCCC1)c1cn(C2COC2)c2cccc(Cl)c12 [Compound 65, 4-Chloro-1-oxetan-3-yl-1H-indole-3-carboxylic acid (1-hydroxy-cycloheptylmethyl)-amide] | 7.00 to 8.00 | 6.30 to 7.00 | – | – |
| O=C(NC[C@@H]1CCCC(F)(F)C1)c1cn(C2COC2)c2cccc(Cl)c12 [Compound 66, 4-chloro-N—(((R)-3,3-difluorocyclohexyl)methyl)-1-(oxetan-3-yl)-1H-indole-3-carboxamide] | 7.00 to 8.00 | 6.30 to 7.00 | – | – |
| O=C(NC[C@H]1CCCC(F)(F)C1)c1cn(C2COC2)c2cccc(Cl)c12 [Compound 67, 4-chloro-N—(((S)-3,3-difluorocyclohexyl)methyl)-1-(oxetan-3-yl)-1H-indole-3-carboxamide] | 7.00 to 8.00 | 7.00 to 8.00 | – | – |
| O=C(NCC1CCCC2(CC2)C1)c1cn(C2COC2)c2cccc(Cl)c12 (centres unmarked) [Compound 68, 4-chloro-1-(oxetan-3-yl)-N-(spiro[2.5]octan-5-ylmethyl)-1H-indole-3-carboxamide] | – | 7.00 to 8.00 | > 8.00 | – |
| O=C(NCC(c1ccccc1)C1CCCC1)c1cn(C2COC2)c2cccc(Cl)c12 (centres unmarked) [Compound 70, 4-Chloro-1-oxetan-3-yl-1H-indole-3-carboxylic acid (2-cyclopentyl-2-phenyl-ethyl)-amide] | 7.00 to 8.00 | 6.30 to 7.00 | – | – |
| O=C(NCCOC1CCCC1)c1cn(C2COC2)c2cccc(Cl)c12 [Compound 72, 4-Chloro-1-oxetan-3-yl-1H-indole-3-carboxylic acid (2-cyclopentyloxy-ethyl)-amide] | 6.00 to 6.30 | – | – | < 6.00 |
| O=C(NCCCC(F)(F)F)c1cn(C2COC2)c2cccc(Cl)c12 [Compound 73, 4-Chloro-1-oxetan-3-yl-1H-indole-3-carboxylic acid (4,4,4-trifluoro-butyl)-amide] | 6.30 to 7.00 | 6.00 to 6.30 | – | – |
| O=C(NCC1CCCOC1)c1cn(C2COC2)c2cccc(Cl)c12 (centres unmarked) [Compound 74, 4,4-Chloro-1-oxetan-3-yl-1H-indole-3-carboxylic acid (tetrahydro-pyran-3-ylmethyl)-amide] | – | – | < 6.00 | < 6.00 |
| O=C(NCC[C@@H]1C[C@@H]2C=C[C@H]1C2)c1cn(C2COC2)c2cccc(Cl)c12 [Compound 75, 4-Chloro-1-oxetan-3-yl-1H-indole-3-carboxylic acid ((1S,2S,4S)-2-bicyclo[2.2.1]hept-5-en-2-yl-ethyl)-amide] | – | 7.00 to 8.00 | > 8.00 | – |
| O=C(NCC1(O)CCCC1)c1cn(C2COC2)c2cccc(Cl)c12 [Compound 81, 4-Chloro-1-oxetan-3-yl-1H-indole-3-carboxylic acid (1-hydroxy-cyclopentylmethyl)-amide] | 6.30 to 7.00 | 6.00 to 6.30 | – | – |
